Assay results as given in US20030199671A1, “Binding molecules for Fc-region polypeptides” (priority 2001, published 2003).
Positions of bridges follow the written chain, without caps; N, C: chain ends. Residues, ends and D or L forms follow the SMILES beside them.

Tests used:
human IgG1 = biological target: T1, human IgG1 (Homo sapiens, UniProt P01857); assay type: binding
T1 construct: all human subtypes derived from myeloma patients; purchased Calbiochem 400120; host or cells: myeloma patients
T1 sequence (P01857 1-330 isoform P01857-1): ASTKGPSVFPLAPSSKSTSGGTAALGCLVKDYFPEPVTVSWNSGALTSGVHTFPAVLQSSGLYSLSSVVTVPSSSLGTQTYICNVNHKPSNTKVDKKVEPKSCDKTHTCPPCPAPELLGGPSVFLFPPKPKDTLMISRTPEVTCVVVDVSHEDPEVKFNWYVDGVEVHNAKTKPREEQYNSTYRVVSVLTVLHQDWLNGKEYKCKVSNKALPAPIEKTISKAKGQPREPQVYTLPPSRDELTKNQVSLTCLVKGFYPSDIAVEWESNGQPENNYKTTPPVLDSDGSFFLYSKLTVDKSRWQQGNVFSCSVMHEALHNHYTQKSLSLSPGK
Summary of the method: (§1)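 Steps: dilute IgG in PBST or TBST; incubate with immobilized peptide 1-1.5 h, RT; collect unbound by centrifugation; measure A280; wash three times; elute with 0.1 M sodium bicarbonate pH 8.5 and/or 0.1 M sodium citrate pH 4.0 for 30-60 min and quantitate.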

human IgG2 = biological target: T2, human IgG2 (Homo sapiens, UniProt P01859); assay type: binding
T2 construct: all human subtypes derived from myeloma patients; purchased Calbiochem 400122; host or cells: myeloma patients
T2 sequence (P01859 1-326 isoform P01859-1): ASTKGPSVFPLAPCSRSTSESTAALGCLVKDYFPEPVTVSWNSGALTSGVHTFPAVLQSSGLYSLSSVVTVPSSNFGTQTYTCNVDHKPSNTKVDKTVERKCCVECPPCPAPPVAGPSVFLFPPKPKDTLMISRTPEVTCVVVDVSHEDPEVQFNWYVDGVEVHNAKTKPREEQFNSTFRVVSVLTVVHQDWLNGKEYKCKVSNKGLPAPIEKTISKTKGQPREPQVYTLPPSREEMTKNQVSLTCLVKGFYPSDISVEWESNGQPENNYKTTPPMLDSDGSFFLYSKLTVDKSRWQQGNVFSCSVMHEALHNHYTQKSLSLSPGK
Summary of the method: (§2)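 Read-out is A280 of unbound IgG (1.4 mg/ml extinction coefficient), with percent bound derived against non-filtered or negative controls. Targets were incubated with immobilized peptides in PBST or TBST for 1-1.5 h at room temperature. Hydrolyzed Sepharose and immobilized Protein A serve as negative and positive controls.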

bovine IgG = assay type: binding
Summary of the method: as §2

goat IgG = assay type: binding
Summary of the method: as §2

human IgG [1] = assay type: binding
Summary of the method: as §2

mouse IgG = assay type: binding
Summary of the method: as §2

IgG4 = IgG4 (Homo sapiens, UniProt P01861); assay type: binding; set-up: all human subtypes derived from myeloma patients; purchased Calbiochem 400126; host or cells: myeloma patients
IgG4, sequence (P01861 1-327 isoform P01861-1): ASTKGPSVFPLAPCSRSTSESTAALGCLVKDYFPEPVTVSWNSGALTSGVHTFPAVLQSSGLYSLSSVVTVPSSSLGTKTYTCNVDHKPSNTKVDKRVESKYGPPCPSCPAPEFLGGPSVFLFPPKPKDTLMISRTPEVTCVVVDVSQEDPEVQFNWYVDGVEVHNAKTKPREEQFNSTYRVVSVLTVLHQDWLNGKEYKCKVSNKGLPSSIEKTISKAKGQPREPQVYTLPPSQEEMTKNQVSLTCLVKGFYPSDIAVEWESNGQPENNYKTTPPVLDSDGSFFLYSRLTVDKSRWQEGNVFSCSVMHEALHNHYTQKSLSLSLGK
Summary of the method: as §2

IgG3 = IgG3 (Homo sapiens, UniProt P01860); assay type: binding; set-up: all human subtypes derived from myeloma patients; purchased Calbiochem 400124; host or cells: myeloma patients
IgG3, sequence (P01860 1-377 isoform P01860-1): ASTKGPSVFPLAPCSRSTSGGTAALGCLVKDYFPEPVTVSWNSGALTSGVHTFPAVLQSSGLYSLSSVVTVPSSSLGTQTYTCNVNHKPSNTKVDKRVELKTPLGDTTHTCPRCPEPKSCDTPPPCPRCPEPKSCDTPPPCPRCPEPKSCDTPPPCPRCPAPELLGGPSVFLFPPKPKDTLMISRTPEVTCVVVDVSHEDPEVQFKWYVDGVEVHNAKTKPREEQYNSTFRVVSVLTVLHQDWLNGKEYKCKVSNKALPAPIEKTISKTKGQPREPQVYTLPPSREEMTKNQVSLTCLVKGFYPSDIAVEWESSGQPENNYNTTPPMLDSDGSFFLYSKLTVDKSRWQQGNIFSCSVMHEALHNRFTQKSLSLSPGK
Summary of the method: as §1

human IgG [2] = experiment: Static (filterplate) binding capacity
[3] = Table 9, immobilized peptide, 5.0 mg/ml resin load
[4] = Table 10, elution 0.1 M sodium bicarbonate buffer, pH 8.5
[5] = Table 10, elution 0.1 M sodium citrate buffer, pH 4.0

## CC[C@H](C)[C@@H]1NC(=O)[C@H](CC(C)C)NC(=O)[C@H](CCC(=O)O)NC(=O)CNC(=O)[C@H](Cc2c[nH]c3ccccc23)NC(=O)[C@H]([C@@H](C)O)NC(=O)[C@H]([C@@H](C)O)NC(=O)[C@H](Cc2ccc(O)cc2)NC(=O)[C@H](C(C)C)NC(=O)[C@@H](NC(=O)[C@H](CCSC)NC(=O)[C@H](Cc2c[nH]cn2)NC(=O)[C@H](CC(=O)O)NC(=O)[C@H](CC(=O)O)NC(=O)CNC(C)=O)CSSC[C@@H](C(=O)N[C@@H](CC(=O)O)C(=O)N[C@@H](CC(N)=O)C(=O)N[C@@H](Cc2c[nH]cn2)C(=O)N[C@@H](CCC(=O)O)C(=O)N2CCC[C@H]2C(=O)NCC(=O)N2CCC[C@H]2C(=O)N[C@@H](CCC(=O)O)C(=O)NCC(=O)NCC(=O)NCC(=O)N[C@@H](CCCCN)C(N)=O)NC(=O)[C@H](Cc2c[nH]c3ccccc23)NC1=O [DX249] (Ac-GDDHMCVYTTWGELIWCDNHEPGPEGGGK-NH2; disulfide 6-17)
Human IgG1; [3]
  % IgG Capture - Batch Binding, Human IgG1: 91%
Human IgG1; Table 10, batch binding
  Human IgG1 bdg % (% of Total Load): 91%
Human IgG1; [4]
  Human IgG1 elu pH 8.5 (% of Total Load): 63%
Human IgG1; [5]
  Human IgG1 elu pH 4.0 (% of Total Load): 51%
Human IgG1; Table 13
  hIgG1 elution pH 2.5 (% of Total Load): 65%
  hIgG1 elution pH 3.0 (% of Total Load): 69%
  hIgG1 elution pH 3.5 (% of Total Load): 69%
  hIgG1 elution pH 4.5 (% of Total Load): 37%
  hIgG1 elution pH 5.5 (% of Total Load): 1%
  hIgG1 elution pH 9.0 (% of Total Load): 65%
  hIgG1 elution pH 9.5 (% of Total Load): 68%
Human IgG2; [3]
  % IgG Capture - Batch Binding, Human IgG2: 92%
Human IgG2; Table 10, batch binding
  Human IgG2 bdg % (% of Total Load): 92%
Human IgG2; [4]
  Human IgG2 elu pH 8.5 (% of Total Load): 54%
Human IgG2; [5]
  Human IgG2 elu pH 4.0 (% of Total Load): 63%
Human IgG2; Table 13
  hIgG2 elution pH 2.5 (% of Total Load): 71%
  hIgG2 elution pH 3.0 (% of Total Load): 73%
  hIgG2 elution pH 3.5 (% of Total Load): 63%
  hIgG2 elution pH 4.5 (% of Total Load): 39%
  hIgG2 elution pH 5.5 (% of Total Load): 1%
  hIgG2 elution pH 9.0 (% of Total Load): 60%
  hIgG2 elution pH 9.5 (% of Total Load): 67%
Bovine IgG
  % IgG Capture - Batch Binding, Bovine IgG: 0%
Goat IgG
  % IgG Capture - Batch Binding, Goat IgG: 0%
Human IgG [1]
  % IgG Capture - Batch Binding, Human IgG: 84%
Mouse IgG
  % IgG Capture - Batch Binding, Mouse IgG: 0%
IgG4; [3]
  % IgG Capture - Batch Binding, Human IgG4: 82%
IgG4; Table 10, batch binding
  Human IgG4 bdg % (% of Total Load): 82%
IgG4; [4]
  Human IgG4 elu pH 8.5 (% of Total Load): 66%
IgG4; [5]
  Human IgG4 elu pH 4.0 (% of Total Load): 54%
IgG4; Table 13
  hIgG4 elution pH 2.5 (% of Total Load): 42%
  hIgG4 elution pH 3.0 (% of Total Load): 43%
  hIgG4 elution pH 3.5 (% of Total Load): 30%
  hIgG4 elution pH 4.5 (% of Total Load): 10%
  hIgG4 elution pH 5.5 (% of Total Load): 4%
  hIgG4 elution pH 9.0 (% of Total Load): 53%
  hIgG4 elution pH 9.5 (% of Total Load): 59%
IgG3; [3]
  % IgG Capture - Batch Binding, Human IgG3: 0%
IgG3; Table 10, batch binding
  Human IgG3 bdg % (% of Total Load): 3%
IgG3; [4]
  Human IgG3 elu pH 8.5 (% of Total Load): 0%
IgG3; [5]
  Human IgG3 elu pH 4.0 (% of Total Load): 0%
IgG3; Table 13
  hIgG3 elution pH 2.5 (% of Total Load): 0%
  hIgG3 elution pH 3.0 (% of Total Load): 0%
  hIgG3 elution pH 3.5 (% of Total Load): 0%
  hIgG3 elution pH 4.5 (% of Total Load): 0%
  hIgG3 elution pH 5.5 (% of Total Load): 0%
  hIgG3 elution pH 9.0 (% of Total Load): 0%
  hIgG3 elution pH 9.5 (% of Total Load): 0%
Human IgG [2]; Ligand Density 0.19 μM/mL
  Capacity (mg IgG/mL resin) Static: 1.2 mg IgG/mL resin
Human IgG [2]; Ligand Density 0.86 μM/mL
  Capacity (mg IgG/mL resin) Static: 9.5 mg IgG/mL resin
Human IgG [2]; Ligand Density 1.63 μM/mL
  Capacity (mg IgG/mL resin) Static: 15.4 mg IgG/mL resin
Human IgG [2]; Ligand Density 3.20 μM/mL
  Capacity (mg IgG/mL resin) Static: 19.0 mg IgG/mL resin
Human IgG [2]; Table 18, 25 mg human IgG applied per ml resin, average ligand density 1.9 μmole/ml
  Static Cap.: 24 mg/mL
